Laboratory results as given in patent publication US9656962B2, “Ring-contracted morphinans and the use thereof” (Purdue Pharma L.P., priority 2013, dated 2017).

Tests used:
μ-opioid receptor [1] = molecular target: T1, μ-opioid receptor (Homo sapiens (Human), UniProt P35372); assay: μ-opioid receptor [35S]GTPγS functional assay, U-2 OS cells (Table 5); format: biochemical; conditions: for Emax: relative to DAMGO; for EC50: μ GTP
In short: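 Membranes (0.026 mg/mL) from cells expressing recombinant human μ-opioid receptor in a U-2 OS background were incubated with 0.20 nM [35S]GTPγS, 3 mM GDP and saponin in 20 mM HEPES pH 7.4, 100 mM NaCl, 10 mM MgCl2 for 30 min at about 25 °C. Filter-bound radioactivity counted; sigmoidal dose-response fits gave values, Emax relative to DAMGO.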

μ-opioid receptor [2] = molecular target: T1, μ-opioid receptor; assay: μ-opioid receptor radioligand binding assay ([3H]-diprenorphine); conditions: binding affinity
Procedure: μ-Opioid Receptor Binding Assay Procedures: Radioligand dose-displacement binding assays for μ-opioid receptors used 0.3 nM [^3H]-diprenorphine (Perkin Elmer, Shelton, Conn.), with […] membrane protein/well in a final volume of 500 μl binding buffer (10 mM MgCl2, 1 mM EDTA, 5% DMSO, 50 mM HEPES, pH 7.4). Reactions were carried out in the absence or presence of increasing concentrations of unlabeled naloxone. All reactions were conducted in 96-deep well polypropylene plates for 2 hours at room temperature. Binding reactions were terminated by rapid filtration onto 96-well Unifilter GF/C filter plates (Perkin Elmer, Shelton, Conn.), presoaked in 0.5% polyethylenimine using a 96-well tissue harvester (Perkin Elmer, Shelton, Conn.) followed by performing three filtration washes with 500 μl of ice-cold binding buffer. Filter plates were subsequently dried at 50° C. for 2-3 hours. BetaScint scintillation cocktail (Perkin Elmer, Shelton, Conn.) was added (50 μl/well), and plates were counted using a Packard Top-Count for 1 min/well. The data were analyzed using the one-site competition curve fitting functions in GraphPad PRISM™ v. 3.0 or higher (San Diego, Calif.), or an in-house function for one-site competition curve-fitting.

[3] = molecular target: recombinant human kappa opioid receptor (κ) (Homo sapiens (Human), UniProt P41145); assay: κ-opioid receptor radioligand binding assay ([3H]-U69,593); conditions: binding affinity
Procedure: κ-Opioid Receptor Binding Assay Procedures: Membranes from HEK-293 cells, CHO cells or U-2 OS cells expressing the recombinant human kappa opioid receptor (κ) were prepared by lysing cells in ice cold hypotonic buffer (2.5 mM MgCl2, 50 mM HEPES, pH 7.4) (10 mL/10 cm dish) followed by homogenization with a tissue grinder/Teflon pestle. Membranes from a cell line naturally expressing kappa opioid receptor can also be used. Membranes were collected by centrifugation at 30,000×g for 15 min at 4° C. and pellets were resuspended in hypotonic buffer to a final concentration of 1-3 mg/mL. Protein concentrations were determined using the BioRad protein assay reagent with bovine serum albumen as standard. Aliquots of κ receptor membranes were stored at −80° C.
Radioligand dose displacement assays used 0.4 nM [^3H]-U69,593 (GE Healthcare, Piscataway, N.J.; 40 Ci/mmole) with 15 μg membrane protein (recombinant opioid receptor expressed in HEK 293 cells; in-house prep) in a final volume of 200 μl binding buffer (5% DMSO, 50 mM Trizma base, pH 7.4). Non-specific binding was determined in the presence of 10 μM unlabeled naloxone or U69,593. All reactions were performed in 96-well polypropylene plates for 1 hour at a temperature of about 25° C. Binding reactions were terminated by rapid filtration onto 96-well Unifilter GF/C filter plates (Perkin Elmer, Shelton, Conn.) presoaked in 0.5% polyethylenimine (Sigma). Harvesting was performed using a 96-well tissue harvester (Perkin Elmer, Shelton, Conn.) followed by five filtration washes with 200 μl ice-cold binding buffer. Filter plates were subsequently dried at 50° C. for 1-2 hours. Fifty μl/well scintillation cocktail (Perkin Elmer, Shelton, Conn.) was added and plates were counted in a Packard Top-Count for 1 min/well.

μ-opioid receptor [4] = molecular target: T1, μ-opioid receptor; assay: μ-opioid receptor [35S]GTPγS functional assay, HEK-293 or CHO cells (Table 4); format: biochemical; conditions: for Emax: relative to DAMGO; for EC50: μ GTP
In short: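 Membranes from HEK-293, CHO or U-2 OS cells (or commercial) expressing recombinant μ receptor; 0.20 nM [35S]GTPγS, 3 mM GDP, saponin, in 100 mM NaCl/10 mM MgCl2/20 mM HEPES pH 7.4.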

κ-opioid receptor [5] = molecular target: T2, κ-opioid receptor (Homo sapiens (Human), UniProt P41145); assay: κ-opioid receptor [35S]GTPγS functional assay, U-2 OS cells (Table 5); format: biochemical; conditions: for Emax: relative to U69,593; for EC50: κ GTP
In short: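 [35S]GTPγS binding in κ receptor membranes (0.026 μg/μl protein) with 10 μg/mL saponin, 3 μM GDP and 0.20 nM [35S]GTPγS in pH 7.4 HEPES/NaCl/MgCl2 buffer. Agonist incubation lasted 30 min at about 25 °C, followed by filtration and scintillation counting. Emax is expressed relative to U69,593.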

κ-opioid receptor [6] = molecular target: T2, κ-opioid receptor; assay: κ-opioid receptor [35S]GTPγS functional assay, HEK-293 or CHO cells (Table 4); format: biochemical; conditions: for Emax: relative to U69,593; for EC50: κ GTP
Procedure: (§1) κ-Opioid Receptor Functional Assay Procedures: Functional [^35S]GTPγS binding assays were conducted as follows. κ opioid receptor membrane solution was prepared by sequentially adding final concentrations of 0.026 μg/μl κ membrane protein (in-house), 10 μg/mL saponin, 3 μM GDP and 0.20 nM [^35S]GTPγS to binding buffer (100 mM NaCl, 10 mM MgCl2, 20 mM HEPES, pH 7.4) on ice. The prepared membrane solution (190 μl/well) was transferred to 96-shallow well polypropylene plates containing 10 μl of 20× concentrated stock solutions of agonist prepared in DMSO. Plates were incubated for 30 min at a temperature of about 25° C. with shaking. Reactions were terminated by rapid filtration onto 96-well Unifilter GF/B filter plates (Perkin Elmer, Shelton, Conn.) using a 96-well tissue harvester (Packard) and followed by three filtration washes with 200 μl ice-cold binding buffer (10 mM NaH2PO4, 10 mM Na2HPO4, pH 7.4). Filter plates were subsequently dried at 50° C. for 2-3 hours. Fifty μl/well scintillation cocktail (Perkin Elmer, Shelton, Conn.) was added and plates were counted in a Packard Top-Count for 1 min/well.
κ GTP Emax (%) is the maximal effect elicited by a compound relative to the effect elicited by U69,593.
In TABLE 4, activity response of certain Compounds of the Invention to the μ- and κ-opioid receptors was determined as described above for functional assays using HEK-293 or CHO cells.

δ-opioid receptor = δ-opioid receptor (Homo sapiens (Human), UniProt P41143); assay: δ-opioid receptor [35S]GTPγS functional assay (Table 4); format: biochemical
Chain of δ-opioid receptor (P41143 whole entry, looked up): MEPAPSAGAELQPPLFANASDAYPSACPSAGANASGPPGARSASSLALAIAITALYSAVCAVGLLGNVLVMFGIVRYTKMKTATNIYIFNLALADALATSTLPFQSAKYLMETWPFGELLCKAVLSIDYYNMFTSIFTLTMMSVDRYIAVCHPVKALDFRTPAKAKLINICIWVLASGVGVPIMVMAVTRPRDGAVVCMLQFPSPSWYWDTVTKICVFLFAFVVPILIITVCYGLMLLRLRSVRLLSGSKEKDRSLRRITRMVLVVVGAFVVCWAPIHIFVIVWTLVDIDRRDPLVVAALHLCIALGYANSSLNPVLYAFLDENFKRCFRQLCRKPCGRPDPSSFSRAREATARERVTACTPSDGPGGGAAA
Procedure: as §1, with “δ-Opioid” for “κ-Opioid”, “δ” for “κ”, “(Perkin Elmer, Shelton, Conn.),” for “(in-house),”, “shaking” for “shaking.”, “1-2” for “2-3”, “Top-count” for “Top-Count”
δ GTP Emax (%) is the maximal effect elicited by a compound relative to the effect elicited by met-enkephalin.

## N=C(N)NCCCCNC(=O)[C@@H]1C[C@]23CCN(CC4CC4)[C@H](Cc4ccc(O)cc42)[C@]3(O)C1 [Compound 7, (2R,3aS,4R,9bS)-12-(cyclopropylmethyl)-N-(4-guanidinobutyl)-3a,8-dibydroxy-1,2,3,3a,4,5-hexahydro-4,9b-(epimino-ethano)cyclopenta[a]naphthalene-2-carboxamide]
μ-opioid receptor [1]
  Emax: 56.3 ± 2.6%
  EC50: 8.94 ± 1.31 nM
μ-opioid receptor [2]
  Ki: 23.6 ± 5.56 nM
[3]
  Ki: 0.13 ± 0.018 nM
μ-opioid receptor [4]
  Emax: 1%
μ-opioid receptor [4]; bound given in μM
  EC50: > 20 µM
κ-opioid receptor [5]
  Emax: 101 ± 3.67%
  EC50: 1.16 ± 0.16 nM
κ-opioid receptor [6]
  Emax: 57.5 ± 1.66%
  EC50: 0.8 ± 0.26 nM

## Cc1ccc(CNC(=O)[C@H]2C[C@]34CCN(CC5CC5)[C@H](Cc5ccc(O)cc53)[C@]4(O)C2)cc1 [Compound 38, (2S,3aS,4R,9bS)-12-(cyclopropylmethyl)-3a,8-dihydroxy-N-(4-methylbenzyl)-1,2,3,3a,4,5-hexahydro-4,9b-(epiminoethano)cyclopenta[a]naphthalene-2-carboxamide]
δ-opioid receptor; relative to met-enkephalin
  Emax: 50.1 ± 1.25%
δ-opioid receptor; δ GTP
  EC50: 1.56 ± 0.055 nM
μ-opioid receptor [1]
  Emax: 77.7 ± 2.4%
  EC50: 0.25 ± 0.024 nM
[3]
  Ki: 0.16 ± 0.044 nM
μ-opioid receptor [4]
  Emax: 56.5 ± 2.6%
  EC50: 0.00062 ± 0.00012 µM
κ-opioid receptor [5]
  Emax: 105 ± 3.18%
  EC50: 0.065 ± 0.01 nM
κ-opioid receptor [6]
  Emax: 96.3 ± 3.18%
  EC50: 0.43 ± 0.048 nM

## O=C(NCc1ccccc1)[C@@H]1C[C@]23CCN(CC4CC4)[C@H](Cc4ccc(O)cc42)[C@]3(O)C1 [Compound 33, (2R,3aS,4R,9bS)-N-benzyl-12-(cyclopropylmethyl)-3a,8-dihydroxy-1,2,3,3a,4,5-hexahydro-4,9b-(epiminoethano)cyclopenta[a]naphthalene-2-carboxamide]
μ-opioid receptor [1]
  Emax: 45.7 ± 0.67%
  EC50: 3.84 ± 0.21 nM
μ-opioid receptor [2]
  Ki: 1.39 ± 0.082 nM
[3]
  Ki: 0.75 ± 0.13 nM
μ-opioid receptor [4]
  Emax: 1%
μ-opioid receptor [4]; bound given in μM
  EC50: > 20 µM
κ-opioid receptor [5]
  Emax: 103 ± 3.48%
  EC50: 3.18 ± 0.46 nM
κ-opioid receptor [6]
  Emax: 43.3 ± 0.33%
  EC50: 7.03 ± 0.82 nM

## COC(=O)[C@@H]1C[C@]23CCN(CC4CC4)[C@H](Cc4ccc(O)cc42)[C@]3(O)C1 [Compound 12, (2R,3aS,4R,9bS)-methyl-12-(cyclopropylmethyl)-3a,8-dihydroxy-1,2,3,3a,4,5-hexahydro-4,9b-(epimino-ethano)cyclopenta[a]naphthalene-2-carboxylate]
μ-opioid receptor [1]
  Emax: 55.6 ± 3.83%
  EC50: 1.22 ± 0.27 nM
μ-opioid receptor [2]
  Ki: 0.53 ± 0.076 nM
[3]
  Ki: 0.3 ± 0.056 nM
μ-opioid receptor [4]
  Emax: 1%
μ-opioid receptor [4]; bound given in μM
  EC50: > 20 µM
κ-opioid receptor [5]
  Emax: 108 ± 3.51%
  EC50: 1.7 ± 0.26 nM
κ-opioid receptor [6]
  Emax: 82.7 ± 1.2%
  EC50: 2.95 ± 1.06 nM

## O=C(O)[C@@H]1C[C@]23CCN(CC4CC4)[C@H](Cc4ccc(O)cc42)[C@]3(O)C1 [Compound 16, (2R,3aS,4R,9bS)-12-(cyclopropylmethyl)-3a,8-dihydroxy-1,2,3,3a,4,5-hexahydro-4,9b-(epiminoethano)-cyclopenta-[a]naphthalene-2-carboxylic acid]
μ-opioid receptor [1]
  Emax: 31.8 ± 3.07%
  EC50: 4.75 ± 0.62 nM
μ-opioid receptor [2]
  Ki: 55.6 ± 11 nM
[3]
  Ki: 17.3 ± 6.19 nM
μ-opioid receptor [4]
  Emax: 1%
μ-opioid receptor [4]; bound given in μM
  EC50: > 20 µM
κ-opioid receptor [5]
  Emax: 90.7 ± 5.81%
  EC50: 13.2 ± 1.86 nM
κ-opioid receptor [6]
  Emax: 38 ± 2.04%
  EC50: 12.4 ± 3.66 nM
